The text below walks through data of patent publication US11618747B2, “LXR modulators with bicyclic core moiety” (OrsoBio, Inc., priority 2018, dated 2023).

The target of data set [1] is T1, ligand-binding domain (LBD) of LXRα (Homo sapiens, UniProt Q13133).
T1 construct: expressed in transfected cells; host or cells: HEK293
T1 sequence (Q13133 155-447): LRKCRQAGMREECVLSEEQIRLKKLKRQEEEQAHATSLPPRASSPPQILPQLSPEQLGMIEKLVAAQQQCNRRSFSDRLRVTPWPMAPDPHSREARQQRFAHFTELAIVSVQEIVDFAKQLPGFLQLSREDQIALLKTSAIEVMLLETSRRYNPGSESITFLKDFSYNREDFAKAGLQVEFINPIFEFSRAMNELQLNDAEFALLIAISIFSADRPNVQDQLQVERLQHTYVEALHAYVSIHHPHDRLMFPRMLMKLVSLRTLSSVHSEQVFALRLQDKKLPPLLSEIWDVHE
Kind of data set: LXR Gal4 reporter transient transfection assay (LBD-M2H Gal4α). Conditions: HEK293 cells. The data set is classed as cell-based. In a few lines:
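Luminescence readout: Firefly luciferase driven by GAL4 response elements reports LXR–cofactor interaction, normalised against cotransfected Renilla luciferase. The system used HEK293 cells expressing LXR full length or ligand-binding domain fused to the NFkB activation domain, with SRC1 or NCoR domains on GAL4 DBD; compound exposure was 16 h.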

Data set [2] can be described thus: Pharmacokinetics in mice after single oral dosing (blood/plasma and liver exposure). The data set is classed as in vivo, mice (C57/bl6/J). Particulars: 20 mg/kg single oral dose. How it is done: The pharmacokinetics of the compounds was assessed in mice after single dosing and oral administrations. Blood/plasma and liver exposure was measured via LC-MS.
The study design was as follows:
Animals: C57/bl6/J (Janvier) males
Diet: standard rodent chow
Animal handling: animals were withdrawn from food at least 12 h before administration
Design: single dose oral administration, n=3 animals per group
Sacrifice: at stated time point (4, 12 or 24 h) after administration
Bioanalytics: LC-MS of liver and blood/plasma samples

The mark [3] stands for this setting: LXRα LBD, read-out: LBD-M2H Gal4α (EC50 range).

The structures appear in SMILES notation. pEC50: −log10 of the molar value. Read-outs that look alike come from different tables or passages of the source.

For `Cc1ccc(S(=O)(=O)n2c(-c3cccc(N4CC(C(=O)O)C4)c3)c(-c3ccsc3C#N)c3cc(F)ccc32)cc1` [3/32], the “LBD-M2H Gal4α efficacy (value in brackets)” value in data set [1] is 103%. Further, the pEC50 in data set [1] (read-out: LBD-M2H Gal4α potency) is 6.97.
`Cc1ccc(S(=O)(=O)n2c(-c3cccc(N4CC(C(=O)O)C4)c3)c(-c3ccsc3C#N)c3cc(F)c(F)cc32)cc1` [3/42]: in data set [1] (setting [3]), the pEC50 is 6.00 to 7.00.
`Cc1ccc(S(=O)(=O)n2c(-c3cccc(N4CC(C(=O)O)C4)c3)c(-c3ccsc3C#N)c3cc(F)c(Cl)cc32)cc1` [3/43]: the pEC50 in data set [1] (setting [3]) is 6.00 to 7.00.
On to `Cc1ccc(S(=O)(=O)n2c(-c3cccc(N4CC(C(=O)O)C4)c3)c(-c3ccsc3C#N)c3cc(Cl)ccc32)cc1` [3/44], for which, in data set [1] (setting [3]), the pEC50 was > 7.00.
On the same count and under the same terms, the figure for `Cc1ccc(S(=O)(=O)n2c(-c3cccc(N4CC(C(=O)O)C4)c3)c(-c3ccsc3C#N)c3cc(C)ccc32)cc1` [3/46] is > 7.00.
Turning to `Cc1ccc(S(=O)(=O)n2c(-c3cccc(-c4ccc(C(=O)O)cc4Cl)c3)c(-c3ccsc3C#N)c3cc(F)ccc32)cc1` [3/48], in data set [2] (time point 12 h), the “blood/plasma exposure (below LLOQ, LLOQ given)” value is “(1.2 ng/mL)” and the liver exposure entry is “A (A: <300 nM)”.
Turning to `Cc1ccc(S(=O)(=O)n2c(-c3cccc(-c4ccc(C(=O)O)cc4)c3)c(-c3ccsc3C#N)c3cc(F)ccc32)cc1` [5/3], in data set [2] (time point 4 h), the blood/plasma exposure result is “C (C: 100 nM to <300 nM)”, the liver exposure result is listed as “C (C: 1 μM to ≤3 μM)” and the liver/blood ratio result is “C (C: 10 to ≤30)”.
The corresponding values for `Cc1ccc(S(=O)(=O)n2c(-c3cccc(-c4ccc(C(=O)O)cc4)c3)c(-c3ccsc3C#N)c3cc(F)ccc32)cc1C` [23/2] are “B (B: 300 nM to ≤1 μM)”, “D (D: >3 μM)” and “C (C: 10 to ≤30)”.
